As usually defined, the GI50 is the concentration at which growth is held to half of that of the control.

The values below come from ChEMBL document CHEMBL1201862, “PubChem BioAssay data set” (2004).

Test systems include UACC-257; TK-10; SNB-19; SF-268; SR; ACHN; COLO 205; RPMI-8226; PC-3; SK-MEL-2; SW-620; UACC-62; MDA-MB-435; SF-539; KM12; SK-MEL-28; OVCAR-5; NCI-H522; Malme-3M; MDA-MB-231.
What all share (assay): DTP human tumour cell line panel, 48 h

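Growth conditions: 96-well plates. Treatment: test compound, 48 hours, 5 concentrations. Analysis: linear interpolation between bracketing concentrations; unreached endpoints set to highest concentration. Here, GI50 denotes the concentration required for 50% inhibition of growth.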 Active and inactive are the calls of the source. No stated cut-off is given here; in the data, active = GI50 up to about 1.1 µM and inactive = higher.

Take `C/C(=C\c1csc(C)n1)[C@@H]1C[C@@H]2O[C@@H]2CCC[C@H](C)[C@H](O)[C@@H](C)C(=O)C(C)(C)[C@@H](O)CC(=O)O1.C/C(=C\c1csc(C)n1)[C@@H]1C[C@@H]2O[C@]2(C)CCC[C@H](C)[C@H](O)[C@@H](C)C(=O)C(C)(C)[C@@H](O)CC(=O)O1`: the 50% growth inhibitory concentration (GI50) with UACC-257 was 0.145 µM (active); in the test on TK-10, 0.0439 µM (active); in the test on SNB-19, 0.0191 µM (active); in the test with SF-268, 0.0122 µM (active); in the test with SR, 0.00397 µM (active); in the test with ACHN, 0.0179 µM (active). For the same compound, the GI50 in the test on COLO 205 was 0.00299 µM (active); in the test with RPMI-8226 it was 0.00995 µM (active); in the test with PC-3 it was 0.00469 µM (active); in the test with SK-MEL-2, 0.0246 µM (active); in the test with SW-620, 0.00255 µM (active); in the test on UACC-62 it was 0.00767 µM (active). Besides, the GI50 with MDA-MB-435 was 0.000973 µM (active); in the test with SF-539, 0.00511 µM (active); in the test with KM12 it was 0.00265 µM (active); with SK-MEL-28, 0.00475 µM (active); in the test on OVCAR-5, 0.108 µM (active); with NCI-H522, 0.00076 µM (active). For the same compound, the results for the GI50 with Malme-3M and in the test with MDA-MB-231 were 0.129 µM (active) and 0.00893 µM (active), respectively.
Regarding `O=C(COc1ccc(Cl)c(Cl)c1)N(Cc1ccccc1)Cc1ccc[n+](Cc2ccc(Cl)cc2S(=O)(=O)F)c1`, the GI50 with UACC-257 was 35.4 µM (inactive); in the test on TK-10, 53.3 µM (inactive); with SNB-19 it was 37.8 µM (inactive); with SF-268, > 100 µM (inactive); in the test on SR, 23.2 µM (inactive); in the test on ACHN, 56.4 µM (inactive). For the same compound, the GI50 in the test with COLO 205 is 72.3 µM (inactive); in the test on RPMI-8226, 13.3 µM (inactive); in the test on PC-3 it was > 100 µM (inactive); in the test on SK-MEL-2, 25.4 µM (inactive); in the test on SW-620 it was 54.2 µM (inactive); with UACC-62, 62.1 µM (inactive). Also, the GI50 with MDA-MB-435 is 29.9 µM (inactive); in the test with SF-539, 12.9 µM (inactive); in the test with KM12, 23.4 µM (inactive); in the test with SK-MEL-28, 26.8 µM (inactive); with OVCAR-5, > 100 µM (inactive); in the test on NCI-H522 it was 94.6 µM (inactive). For the same compound, the results for the GI50 with Malme-3M and in the test on MDA-MB-231 were 20 µM (inactive) and 14.8 µM (inactive), respectively.
With `CC(C)(OCc1ccccc1)c1ccccc1P(c1ccccc1)c1ccccc1`, the GI50 with UACC-257 is 22.3 µM (inactive); with TK-10, 37.1 µM (inactive); in the test with SNB-19, 69 µM (inactive); in the test with SF-268 it was 83.8 µM (inactive); in the test on SR it was 34.8 µM (inactive); in the test on ACHN, 44.8 µM (inactive). The GI50 with COLO 205 is 27 µM (inactive); in the test on RPMI-8226, 4.04 µM (inactive); in the test on PC-3 it was 33.3 µM (inactive); in the test on SK-MEL-2, 73.5 µM (inactive); in the test on SW-620, 82.2 µM (inactive); in the test on UACC-62 it was 47.5 µM (inactive). Moreover, the GI50 in the test with MDA-MB-435 was 37.9 µM (inactive); in the test with SF-539, > 100 µM (inactive); with KM12 it was 23.1 µM (inactive); in the test on SK-MEL-28 it was 42.2 µM (inactive); in the test with OVCAR-5, > 100 µM (inactive); with NCI-H522 it was 42.8 µM (inactive). For the same compound, the results for the GI50 in the test on Malme-3M and with MDA-MB-231 were 26.2 µM (inactive) and 65 µM (inactive), respectively.
For the compound `CC1=C(N2CC2)C(=O)C(C)=C(N2CC2)C1=O`, the GI50 in the test with UACC-257 was 0.465 µM (active); in the test with TK-10, 0.289 µM (active); in the test on SNB-19, 0.348 µM (active); in the test on SF-268 it was 0.0834 µM (active); with SR, 0.05 µM (active); in the test on ACHN, 0.0315 µM (active). The GI50 with COLO 205 was 0.206 µM (active); with RPMI-8226 it was 0.201 µM (active); in the test on PC-3, 0.282 µM (active); in the test on SK-MEL-2, 0.306 µM (active); in the test with SW-620, 0.143 µM (active); with UACC-62, 0.0579 µM (active). Moreover, the GI50 is 0.288 µM (active) in the test with MDA-MB-435; 0.134 µM (active) in the test on SF-539; 0.279 µM (active) in the test with KM12; 0.356 µM (active) in the test with SK-MEL-28; 0.296 µM (active) in the test with OVCAR-5; 0.0998 µM (active) in the test on NCI-H522. Moreover, the values for the GI50 in the test on Malme-3M and in the test on MDA-MB-231 were 0.204 µM (active) and 4.01 µM (inactive), respectively.
For the compound `Cc1c(F)c(N)c2c(=O)cc(-c3ccc(N)c(F)c3)oc2c1F` [AMINOFLAVONE], the GI50 is 0.298 µM (active) in the test on UACC-257; 0.258 µM (active) with TK-10; 21 µM (inactive) with SNB-19; 23.1 µM (inactive) in the test on SF-268; 18.7 µM (inactive) in the test on SR; 15.7 µM (inactive) with ACHN. The GI50 in the test on COLO 205 was 32.5 µM (inactive); in the test with RPMI-8226, 14.9 µM (inactive); with PC-3, 20.7 µM (inactive); in the test with SK-MEL-2, 40.6 µM (inactive); in the test with SW-620, 0.0305 µM (active); in the test on UACC-62, 4.73 µM (inactive). The GI50 was 43.5 µM (inactive) in the test with MDA-MB-435; 14.9 µM (inactive) with SF-539; 21.9 µM (inactive) in the test with KM12; 45.1 µM (inactive) with SK-MEL-28; 0.15 µM (active) in the test with OVCAR-5; 9.71 µM (inactive) in the test on NCI-H522. Also, the GI50 with Malme-3M was 33.5 µM (inactive); in the test on MDA-MB-231, 18.7 µM (inactive).
